Source: ChEMBL document CHEMBL1146040, “Lactones from a brown alga endophytic fungus (No. ZZF36) from the South China Sea and their antimicrobial activities” (2006)
≈ marks a conversion by molar mass, not a printed value.

What was measured:
[1] = test system: Candida albicans; assay: Antifungal activity against Candida albicans ATCC 10231; type: functional
[2] = test system: Escherichia coli; assay: Antibacterial activity against Escherichia coli ATCC 25922; type: functional
[3] = test system: Staphylococcus aureus; assay: Antibacterial activity against Staphylococcus aureus ATCC 27154; type: functional
[4] = test system: Salmonella enteritidis; assay: Antibacterial activity against Salmonella enteritidis ATCC 13076; type: functional, Salmonella enterica subsp. enterica serovar Enteritidis; conditions: Salmonella enterica
[5] = test system: Bacillus subtilis; assay: Antibacterial activity against Bacillus subtilis ATCC 6633; type: functional
[6] = test system: Fusarium oxysporum; assay: Antifungal activity against Fusarium oxysporum f.sp.cubense; type: functional

CC1CCC(=O)CCCCc2cc(O)cc(O)c2C(=O)O1 (configuration not stated)
MIC [1]: > 100 µg/mL
MIC [2]: > 100 µg/mL
MIC [3]: > 100 µg/mL
MIC [4]: > 100 µg/mL
MIC [5]: > 100 µg/mL
MIC [6]: > 100 µg/mL

NYSTATIN
MIC [1]: 1.56 µg/mL
MIC [6]: 3.12 µg/mL

CC1CC(O)CCCCCc2cc(O)cc(O)c2C(=O)O1 (configuration not stated)
MIC [1]: > 100 µg/mL
MIC [2]: > 100 µg/mL
MIC [3]: 100 µg/mL (≈ 340 µM)
MIC [4]: > 100 µg/mL
MIC [5]: > 100 µg/mL
MIC [6]: > 100 µg/mL

CC1CCCCCCCc2cc(O)cc(O)c2C(=O)O1 (configuration not stated)
MIC [1]: 100 µg/mL (≈ 359 µM)
MIC [2]: > 100 µg/mL
MIC [3]: 6.25 µg/mL (≈ 22.5 µM)
MIC [4]: 12.5 µg/mL (≈ 44.9 µM)
MIC [5]: 12.5 µg/mL (≈ 44.9 µM)
MIC [6]: 50 µg/mL (≈ 180 µM)

COc1cc(O)cc2c1C(=O)O[C@@H](C)CCCCCCC2 [LASIODIPLODIN]
MIC [1]: > 100 µg/mL
MIC [2]: > 100 µg/mL
MIC [3]: 25 µg/mL (≈ 85.5 µM)
MIC [4]: > 100 µg/mL
MIC [5]: 50 µg/mL (≈ 171 µM)
MIC [6]: 100 µg/mL (≈ 342 µM)

COc1c(Br)c(O)c(Br)c2c1C(=O)OC(C)CCCCCCC2 (configuration not stated)
MIC [1]: > 100 µg/mL
MIC [2]: > 100 µg/mL
MIC [3]: > 100 µg/mL
MIC [4]: > 100 µg/mL
MIC [5]: 6.25 µg/mL (≈ 13.9 µM)
MIC [6]: 12.5 µg/mL (≈ 27.8 µM)

COc1cc(OC(C)=O)cc2c1C(=O)OC(C)CCCCCCC2 (configuration not stated)
MIC [1]: > 100 µg/mL
MIC [2]: > 100 µg/mL
MIC [3]: > 100 µg/mL
MIC [4]: > 100 µg/mL
MIC [5]: > 100 µg/mL
MIC [6]: > 100 µg/mL

CC1(C)S[C@@H]2[C@H](NC(=O)[C@H](N)c3ccccc3)C(=O)N2[C@H]1C(=O)O [AMPICILLIN]
MIC [2]: 6.25 µg/mL (≈ 17.9 µM)
MIC [3]: > 100 µg/mL
MIC [4]: 50 µg/mL (≈ 143 µM)
MIC [5]: 100 µg/mL (≈ 286 µM)
